# Where “and” joins values, the source holds several entries; their conditions need not be identical. Equal values may be shown once. Read-outs that look alike come from different tables or passages of the source.
# Tests used:
# Assay type in all cases: in vivo, human
# [1] = Example 2: safety (adverse events, physical examinations, laboratory tests)
# Experimental: (§1) This was an open-label study in healthy male subjects. […] The 400 mg single dose of ketoconazole was given to all subjects on day 8.
# Safety was assessed by spontaneously reported adverse events, physical examinations, and routine clinical laboratory tests. Adverse event data were tabulated. Physical findings and laboratory test results were listed by subject.
# [2] = Example 2: effect of a 400 mg single dose of ketoconazole on PK of an 8-day regimen of 300 mg or 600 mg OD mifepristone, moderate fat breakfast; details: for Cmax / AUC(0-t) / Tmax / half-life: male, human, plasma, oral; for AUC(0-t): read-out: AUCt (AUC0-24 hours, mean); for Tmax: read-out: Tmax (median); for half-life: read-out: T1/2 (mean) (converted)
# Experimental: as §1
# METHODOLOGY: Twelve subjects were enrolled, six in Cohort 1 and 6 in Cohort 2.
# Subjects were discharged on Day 11.
# Subjects were discharged on Day 11. Subjects in both cohorts returned to study center on Day 13 for safety monitoring, collection of the 120-hour PK draw, and completion of the Termination Visit procedures, followed by discharge from the study. To the extent possible, any adverse events deemed study drug-related and that were ongoing at the time of discharge from the study were followed-up to resolution or until a determination was made that the unresolved event was stable.
# DIAGNOSIS AND MAIN […] FOR INCLUSION: Healthy male volunteers between the ages of 18 to 45 years of age with a body mass index (BMI) ranging between 19 and 32 kg/m2 and a weight of at least 60 kg (132 lbs) were enrolled. Subjects had no clinically significant abnormal findings on the physical examination, ECG, blood pressure, heart rate, medical history, or clinical laboratory results during screening. The QTc interval at screening was less than 450 msec.
# DURATION OF TREATMENT: Up to a total of 28 days, including up to 2 weeks screening, dosing on Days 1-8, safety observation, and PK sample collection through Day 13.
# Additionally, comparisons were made between the PK results of cohort 1 and 2. Pharmacokinetic parameters Cmax, T1/2 and total AUC were calculated for plasma concentrations of ketoconazole following the single dose on Day 8. Descriptive statistics (count, mean, median, standard deviation, minimum, maximum, and % coefficient of variation) were provided. Ketoconazole concentrations were listed and summarized. GM means of Cmax and total AUC were compared for the single dose in this study to the combined data of reported 400 mg single doses of ketoconazole of healthy subjects from the literature.
# [3] = Examples 4-7: liver function of a patient with excess cortisol switched to reduced mifepristone dose plus ketoconazole
# [4] = Example 3: Phase 1 study of ketoconazole 200 mg twice daily with mifepristone 600 mg once daily with food, plasma PK incl. cross-study comparison
# [5] = Example 1: safety (adverse events, laboratory tests, ECG)
# Experimental: In cohort 1, six subjects received ketoconazole 400 mg OD for 14 days.
# In cohort 2, six subjects received ketoconazole 200 mg BID for 14 days. […] All 12 subjects completed the study. Cohort 2 subjects participated in a Screening visit to assess eligibility and a check-in Day (Day −1) during which eligibility was re-confirmed. […] The evening of Day 1, subjects received 200 mg oral ketoconazole. Subjects remained in the clinic on Days 2, 3 and 4 to receive 200 mg BID oral ketoconazole, and for safety evaluation and collection of blood pharmacokinetic (PK) samples. Subjects were discharged from the clinic on Day 4 following evening administration of 200 mg oral ketoconazole, and returned to the clinic the morning and evening of Days 5 through 13 to receive 200 mg BID oral ketoconazole. Morning doses of ketoconazole on Days 0-13 were administered in the fasted state.
# Subjects in both cohorts returned to the study center on Day 15 for safety monitoring, and completion of the Termination Visit procedures, followed by discharge from the study. Safety was assessed by spontaneously reported adverse events, physical examinations, and routine clinical laboratory tests. To the extent possible, any adverse events deemed study drug-related and that were ongoing at the time of discharge from the study were followed-up to resolution or until a determination is made that the unresolved event was stable.
# [6] = Example 3: safety (adverse events, laboratory tests, vital signs, ECG)
# Experimental: A single dose of ketoconazole was administered on Day −1.
# [7] = C1 Day 8/Day 7 (300 mg/d, with vs without 400 mg Keto)
# [8] = C2 Day 8/Day 7 (600 mg/d, with vs without 400 mg Keto)
# [9] = Cohort 1 (300 mg OD), Day 8 with 400 mg ketoconazole relative to Day 7 without
# [10] = Cohort 2 (600 mg OD), Day 8 with 400 mg ketoconazole vs Day 7
# [11] = Day 7 C2/C1 (600 vs 300 mg/d, no ketoconazole)
# [12] = Day 8 C2/C1 (600 vs 300 mg/d, with 400 mg Keto)
# [13] = Day 8 in the presence of 400 mg ketoconazole
# [14] = 300 mg/d, MIFE 300 mg/d, C1 Day 7, no ketoconazole
# [15] = 600 mg/d, MIFE 600 mg/d, C2 Day 7, no ketoconazole
# [16] = MIFE 300 mg/d, C1 Day 8, + 400 mg Keto single dose
# [17] = MIFE 600 mg/d, C2 Day 8, + 400 mg Keto single dose
# [18] = Test: Day 17 600 mg mifepristone OD + 200 mg Ketoconazole BID, Reference: Day 12 600 mg mifepristone OD
# [19] = Test: Present Study Day 17 600 mg mifepristone OD + 200 mg Ketoconazole BID, Reference: Historic Study Day 7 1200 mg mifepristone OD alone, after 34% fat meal
# [20] = mifepristone 300 mg single dose with ketoconazole for 14 days
smiles,measurement,setting,value
"CC#C[C@]1(O)CC[C@H]2[C@@H]3CCC4=CC(=O)CCC4=C3[C@@H](c3ccc(N(C)C)cc3)C[C@@]21C [mifepristone, 11β-(4-dimethylaminophenyl)-17β-hydroxy-17α-(1-propynyl)-estra-4,9-dien-3-one]",TEAEs considered possibly or probably related to administration,[1]; four subjects in Cohort 2 (600 mg),"dizziness, nausea, vomiting, dry mouth, and rash"
same,SAE,[1]; mifepristone 300 or 600 mg OD 8 days + 400 mg ketoconazole Day 8,No subject experienced an SAE
same,subjects with at least 1 TEAE,"[1]; twelve subjects, mifepristone 300 or 600 mg OD 8 days + 400 mg ketoconazole Day 8",50%
same,Mean Ratio AUCt,[2]; [7],1.25
same,Mean Ratio Cmax,[2]; [7],1.19
same,Mean Ratio AUCt,[2]; [8],1.28
same,Mean Ratio Cmax,[2]; [8],1.39
same,increase in AUC0-24,[2]; [9],25%
same,increase in Cmax,[2]; [9],20%
same,increase in AUC0-24,[2]; [10],28%
same,increase in Cmax,[2]; [10],39%
same,Mean Ratio AUCt,[2]; [11],1.48
same,Mean Ratio Cmax,[2]; [11],1.42
same,AUC0-24 greater at 600 mg OD than at 300 mg OD,[2]; Day 7 without ketoconazole,48%
same,Cmax greater at 600 mg OD than at 300 mg OD,[2]; Day 7 without ketoconazole,42%
same,Mean Ratio AUCt,[2]; [12],1.52
same,Mean Ratio Cmax,[2]; [12],1.65
same,AUC0-24 greater at 600 mg OD than at 300 mg OD,[2]; [13],52%
same,Cmax greater at 600 mg OD than at 300 mg OD,[2]; [13],65%
same,half-life greater at 600 mg OD than at 300 mg OD,[2]; [13],13%
same,Cmax,[2]; [14],2700 ng/mL
same,AUC(0-t),[2]; [14],37700 ng·h/mL
same,Tmax,[2]; [14],3 h
same,Cmax,[2]; [15],3820 ng/mL
same,AUC(0-t),[2]; [15],54200 ng·h/mL
same,Tmax,[2]; [15],4 h
same,Cmax,[2]; [16],3240 ng/mL
same,AUC(0-t),[2]; [16],47400 ng·h/mL
same,half-life,[2]; [16],84.9 h
same,Tmax,[2]; [16],2.1 h
same,Cmax,[2]; [17],5260 ng/mL
same,AUC(0-t),[2]; [17],69100 ng·h/mL
same,half-life,[2]; [17],96.2 h
same,Tmax,[2]; [17],4 h
same,liver function of the patient,[3]; daily dose reduced from 600 mg to 300 mg with concomitant ketoconazole,not significantly compromised
same,liver function of the patient,[3]; daily dose reduced from 900 mg to 600 mg with concomitant ketoconazole,not significantly compromised
same,liver function of the patient,[3]; daily dose reduced from 1200 mg to 900 mg with concomitant ketoconazole,not significantly compromised
same,liver function of the patient,[3]; daily dose reduced from 1500 mg to 1200 mg with concomitant ketoconazole,not significantly compromised
same,exposure as percent of that following the highest labeled dose (1200 mg daily),[4]; 600 mg mifepristone once daily with 200 mg ketoconazole twice daily,approximately 85%
same,effect of ketoconazole on exposure (90% CI vs standard 80:125 interval),[4]; Day 17 vs Day 12,increased
same,difference of time 0 (pre-dose) plasma concentration,"[4]; Day 17 vs Day 12, FIG. 2",~500 ng/mL
same,concentrations on Day 17 compared with Day 12,"[4]; Day 17 with 200 mg ketoconazole twice daily, Day 12 mifepristone alone",higher
same,AUC0-24 Ratio % Test/Reference (geometric mean ratio),[4]; [18],138.01%
same,Cmax Ratio % Test/Reference (geometric mean ratio),[4]; [18],127.59%
same,"AUC0-24 Ratio % Test/Ref (cross-study, geometric mean ratio)",[4]; [19],87.27% and 87%
same,"Cmax Ratio % Test/Ref (cross-study, geometric mean ratio)",[4]; [19],84.64%
same,"AUC0-24 Ratio % Test/Ref (cross-study, geometric mean ratio)","[4]; Test: Present Study Day 17 600 mg mifepristone OD + 200 mg Ketoconazole BID, Reference: Historic Study Day 7 1200 mg mifepristone OD alone, after 34% fat meal, listed as Mifepristone",87.27%
same,exposure less than that of 1200 mg mifepristone in the absence of ketoconazole,[4]; mifepristone 600 mg co-administered with ketoconazole,13-15%
same,safety and tolerability,"[5]; 300 mg single-dose fasted with ketoconazole 400 mg OD or 200 mg BID for 14 days, healthy volunteers",safe and well tolerated
same,subjects with at least one treatment emergent adverse event (TEAE),"[5]; 12 subjects, mifepristone 300 mg single dose with ketoconazole for 14 days",25%
same,changes in ECG parameters,[5]; mifepristone 300 mg single dose with ketoconazole,No clinically significant changes
same,SAE or AE resulting in discontinuation,[5]; [20],"No subject experienced a serious adverse effect (SAE), or an adverse event (AE) that resulted in discontinuation"
same,TEAEs considered by the investigator to be related to the drug,[5]; [20],No TEAE
same,subjects reporting at least one TEAE,[6]; during the mifepristone/ketoconazole treatment period,57.1%
same,subjects reporting at least one TEAE,[6]; during treatment with mifepristone alone (600 mg once daily),55.6%
same,subjects with elevated laboratory test results reported as drug-related TEAEs,"[6]; liver enzymes (one subject), creatinine (two subjects), from Day 14",Three subjects
same,"effects on hematology or urinalysis parameters, vital signs, or ECGs",[6]; multiple-dose mifepristone with or without multiple-dose ketoconazole,No clinically significant effects
same,deaths or SAEs,[6]; whole study,No deaths or SAEs
same,severe TEAEs,[6]; whole study,No severe TEAEs

# From US20170281651A1, “CONCOMITANT ADMINISTRATION OF GLUCOCORTICOID RECEPTOR MODULATORS AND CYP3A OR STEROIDOGENESIS INHIBITORS” (Corcept Therapeutics, Inc., priority 2017, published 2017)
